Reference: PubChem BioAssay AID256 (DTP/NCI, 2004)
Several values for one entry are separate records, joined by “and”; a condition that tells them apart may be missing. Equal entries are not always repeated. Toxic doses and inconclusive results are not listed.

Tested on: CD2F1 mice, L1210 leukemia ip, survival T/C
Experiment: NCI In Vivo Anticancer Drug Screen. Data for tumor model L1210 Leukemia (intraperitoneal) in CD2F1 (CDF1) mice
Settings: endpoint: mean survival time, higher = longer survival
Outline: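 Antitumor effect is scored in animals hosting a serially transplanted tumor. Values compare compound-dosed animals against vehicle-only controls as a simple quotient.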

[1] = dose: 100.0 mg/kg/injection, schedule: Q01DX001 (ip), vehicle: saline
[2] = dose: 100.0 mg/kg/injection, schedule: Q01DX009 (ip), vehicle: saline
[3] = dose: 200.0 mg/kg/injection, schedule: Q01DX001 (ip), vehicle: saline
[4] = dose: 200.0 mg/kg/injection, schedule: Q01DX009 (ip), vehicle: saline
[5] = dose: 400.0 mg/kg/injection, schedule: Q01DX001 (ip), vehicle: saline
[6] = dose: 50.0 mg/kg/injection, schedule: Q01DX009 (ip), vehicle: saline with Tween-80
[7] = dose: 100.0 mg/kg/injection, schedule: Q01DX009 (ip), vehicle: saline with Tween-80
[8] = dose: 100.0 mg/kg/injection, schedule: Q04DX003 (ip), vehicle: saline with Tween-80
[9] = dose: 200.0 mg/kg/injection, schedule: Q01DX009 (ip), vehicle: saline with Tween-80
[10] = dose: 200.0 mg/kg/injection, schedule: Q04DX003 (ip), vehicle: saline with Tween-80
[11] = dose: 400.0 mg/kg/injection, schedule: Q01DX009 (ip), vehicle: saline with Tween-80
[12] = dose: 400.0 mg/kg/injection, schedule: Q04DX003 (ip), vehicle: saline with Tween-80
[13] = dose: 100.0 mg/kg/injection, schedule: Q01DX001 (ip), vehicle: saline with Tween-80
[14] = dose: 200.0 mg/kg/injection, schedule: Q01DX001 (ip), vehicle: saline with Tween-80
[15] = dose: 400.0 mg/kg/injection, schedule: Q01DX001 (ip), vehicle: saline with Tween-80
[16] = dose: 25.0 mg/kg/injection, schedule: Q01DX009 (ip), vehicle: saline with Tween-80
[17] = dose: 8.0 mg/kg/injection, schedule: Q01DX009 (ip), vehicle: saline with Tween-80
[18] = dose: 12.0 mg/kg/injection, schedule: Q01DX009 (ip), vehicle: saline with Tween-80
[19] = dose: 18.0 mg/kg/injection, schedule: Q01DX009 (ip), vehicle: saline with Tween-80
[20] = dose: 100.0 mg/kg/injection, schedule: Q04DX002 (ip), vehicle: saline with Tween-80

With `CC(=O)Oc1ccc2c(c1)C(=O)CCCCCC(=O)O2` the T/C (dose: 12.5 mg/kg/injection, schedule: Q01DX009 (ip), vehicle: saline) was 100 % of control, the T/C (dose: 12.5 mg/kg/injection, schedule: Q04DX003 (ip), vehicle: saline) was 97 % of control and the T/C (dose: 25.0 mg/kg/injection, schedule: Q01DX001 (ip), vehicle: saline) was 98 % of control. For the same compound, the T/C (dose: 25.0 mg/kg/injection, schedule: Q01DX009 (ip), vehicle: saline) was 97 % of control, the T/C (dose: 25.0 mg/kg/injection, schedule: Q04DX003 (ip), vehicle: saline) was 98 % of control and the T/C (dose: 50.0 mg/kg/injection, schedule: Q01DX001 (ip), vehicle: saline) was 110 % of control. The T/C (dose: 50.0 mg/kg/injection, schedule: Q01DX009 (ip), vehicle: saline) was 94 % of control, the T/C (dose: 50.0 mg/kg/injection, schedule: Q04DX003 (ip), vehicle: saline) was 111 % of control and the T/C [1] was 98 % of control. For the same compound, the T/C [2] was 95 % of control, the T/C (dose: 100.0 mg/kg/injection, schedule: Q04DX003 (ip), vehicle: saline) was 120 % of control and the T/C [3] was 100 % of control. The T/C [4] was 89 % of control, the T/C (dose: 200.0 mg/kg/injection, schedule: Q04DX003 (ip), vehicle: saline) was 102 % of control and the T/C [5] was 111 % of control.

With `NCc1ccc([N+](=O)[O-])cc1Cl` the T/C [6] was 94 % of control and the T/C [7] was 94 % of control.

With `Oc1c(C(Nc2ccccc2)c2ccccc2)ccc2cccnc12` (configuration not stated) the T/C [1] was 97 % of control, the T/C [3] was 97 % of control and the T/C [5] was 100 % of control.

`CN(C)C` was tested, and the T/C [7] was 103 % of control, the T/C [8] was 102 % of control and the T/C [9] was 101 % of control. The T/C [10] was 105 % of control, the T/C [11] was 105 % of control and the T/C [12] was 104 % of control.

With `C1=C(c2ccccc2)NCC1c1ccccc1` (configuration not stated) the T/C [13] was 94 % of control, the T/C [14] was 86 % of control and the T/C [15] was 89 % of control.

`CC1(C)OC2CC3CC(OC3=O)C2O1` (configuration not stated) was tested, and the T/C [13] was 107 % of control, the T/C [14] was 97 % of control and the T/C [15] was 107 % of control.

`C[n+]1ccccc1CCC(=O)Nc1ccccc1` was tested, and the T/C [16] was 103 % of control, the T/C [6] was 95 % of control and the T/C [7] was 88 % of control.

In the case of `COc1cc(OC)c(NC(=O)OCCON2CCNC2=O)cc1Cl`, the T/C [6] is reported as 90 % of control, the T/C [7] is reported as 90 % of control and the T/C [9] is reported as 97 % of control.

For `Nc1ccc(/C=C/c2ccnc3ccccc23)cc1`, the T/C (dose: 4.0 mg/kg/injection, schedule: Q01DX Z (ip), vehicle: saline) was 104 % of control, the T/C (dose: 8.0 mg/kg/injection, schedule: Q01DX Z (ip), vehicle: saline) was 101 % of control and the T/C (dose: 16.0 mg/kg/injection, schedule: Q01DX Z (ip), vehicle: saline) was 98 % of control.

In the case of `O=c1cc2c(=O)oc3cc(O)c(O)oc3c2c(O)c1O`, the T/C [1] is reported as 101 % of control, the T/C [3] is reported as 98 % of control and the T/C [5] is reported as 98 % of control.

In the case of `Oc1ccc(C=NCCN=Cc2ccc(O)cc2O)c(O)c1`, the T/C [17] is reported as 98 % of control, the T/C [18] is reported as 87 % of control and the T/C [19] is reported as 92 % of control. The T/C [16] was 114 % of control and 96 % of control, the T/C [7] was 87 % of control and the T/C [8] was 87 % of control. For the same compound, the T/C [12] was 88 % of control.

For `NC(=O)COc1c(I)cc(I)cc1I`, the T/C (dose: 100.0 mg/kg/injection, schedule: Q01DX009 (ip), vehicle: saline sonified) was 101 % of control, the T/C [8] was 98 % of control and the T/C (dose: 200.0 mg/kg/injection, schedule: Q01DX009 (ip), vehicle: saline sonified) was 92 % of control. The T/C [10] was 98 % of control, the T/C (dose: 400.0 mg/kg/injection, schedule: Q01DX009 (ip), vehicle: saline sonified) was 89 % of control and the T/C [12] was 96 % of control.

With `O=C1c2ccccc2C(=O)N1CNc1ccc(Cl)cn1` the T/C [7] was 86 % of control, the T/C [8] was 97 % of control and 100 % of control and the T/C [10] was 90 % of control and 98 % of control. The T/C [11] was 86 % of control and the T/C [12] was 91 % of control and 102 % of control.

In the case of `CCOC(=O)c1ccc(NC(=O)OCc2ccco2)cc1`, the T/C [7] is reported as 92 % of control and 98 % of control, the T/C [20] is reported as 88 % of control and 102 % of control and the T/C [8] is reported as 94 % of control. The T/C [9] was 92 % of control and 100 % of control, the T/C (dose: 200.0 mg/kg/injection, schedule: Q04DX002 (ip), vehicle: saline with Tween-80) was 86 % of control and 91 % of control and the T/C [10] was 87 % of control. The T/C [11] was 113 % of control and 96 % of control, the T/C (dose: 400.0 mg/kg/injection, schedule: Q04DX002 (ip), vehicle: saline with Tween-80) was 87 % of control and 88 % of control and the T/C [12] was 89 % of control.

For `Cc1ccc(S(=O)(=O)OC2CCSCC2)cc1`, the T/C [1] was 102 % of control, the T/C [3] was 94 % of control and the T/C [5] was 94 % of control.

With `OCC(CO)(CO)CO` the T/C (dose: 50.0 mg/kg/injection, schedule: Q01DX009 (ip), vehicle: Klucel (hydroxypropylcellulose) (HPC)) was 93 % of control, the T/C (dose: 100.0 mg/kg/injection, schedule: Q01DX009 (ip), vehicle: Klucel (hydroxypropylcellulose) (HPC)) was 93 % of control and the T/C (dose: 200.0 mg/kg/injection, schedule: Q01DX009 (ip), vehicle: Klucel (hydroxypropylcellulose) (HPC)) was 96 % of control.

For `Cc1ccc(S(=O)(=O)NC(=O)c2ccccc2)cc1`, the T/C [7] was 95 % of control, the T/C [8] was 98 % of control and the T/C [9] was 98 % of control. The T/C [10] was 102 % of control, the T/C [11] was 95 % of control and the T/C [12] was 101 % of control.

With `O=C(O)CCCC(=O)C1CCCCC1` the T/C [6] was 103 % of control, the T/C [7] was 103 % of control and the T/C [8] was 95 % of control. For the same compound, the T/C [9] was 98 % of control and the T/C [10] was 90 % of control.

For `CC(C)(CO)c1ccc(C(c2ccccc2)c2ccccc2)cc1`, the T/C (dose: 50.0 mg/kg/injection, schedule: Q01DX009 (ip), vehicle: other) was 96 % of control, the T/C (dose: 100.0 mg/kg/injection, schedule: Q01DX009 (ip), vehicle: other) was 101 % of control and the T/C (dose: 200.0 mg/kg/injection, schedule: Q01DX009 (ip), vehicle: other) was 96 % of control.

`Oc1ccccc1/C=N\Nc1ccccc1` was tested, and the T/C [2] was 98 % of control, the T/C [4] was 98 % of control and the T/C (dose: 400.0 mg/kg/injection, schedule: Q01DX009 (ip), vehicle: saline) was 102 % of control.

For `CC1(C)N=C(N)N=C(N)N1c1ccc(CCCCc2ccc(Cl)c(S(=O)(=O)F)c2)c(Cl)c1`, the T/C (dose: 2.4 mg/kg/injection, schedule: Q01DX009 (ip), vehicle: saline with Tween-80) was 101 % of control, the T/C (dose: 3.6 mg/kg/injection, schedule: Q01DX009 (ip), vehicle: saline with Tween-80) was 95 % of control and the T/C (dose: 5.4 mg/kg/injection, schedule: Q01DX009 (ip), vehicle: saline with Tween-80) was 104 % of control. The T/C [17] was 106 % of control, the T/C [18] was 108 % of control and the T/C [19] was 117 % of control. For the same compound, the T/C (dose: 100.0 mg/kg/injection, schedule: Q04DX003 (ip), vehicle: saline sonified) was 90 % of control.

In the case of `CC(=O)C1(O)Cc2c(O)c3c(c(O)c2C(OC2CC(N)C(O)C(C)O2)C1)C(=O)c1ccccc1C3=O` (configuration not stated), the T/C (dose: 0.03 mg/kg/injection, schedule: Q01DX009 (ip), vehicle: water) is reported as 104 % of control, the T/C (dose: 0.05 mg/kg/injection, schedule: Q01DX009 (ip), vehicle: water) is reported as 110 % of control and the T/C (dose: 0.1 mg/kg/injection, schedule: Q01DX009 (ip), vehicle: water) is reported as 117 % of control. For the same compound, the T/C (dose: 0.4 mg/kg/injection, schedule: Q01DX009 (ip), vehicle: water) was 151 % of control and the T/C (dose: 0.8 mg/kg/injection, schedule: Q01DX009 (ip), vehicle: water) was 92 % of control.

For `CCC(=O)OC1(c2ccccc2)CCN(CCCc2ccccc2Cl)CC1`, the T/C (dose: 25.0 mg/kg/injection, schedule: Q01DX001 (ip), vehicle: saline with Tween-80) was 108 % of control, the T/C (dose: 25.0 mg/kg/injection, schedule: Q04DX002 (ip), vehicle: saline with Tween-80) was 95 % of control and the T/C (dose: 50.0 mg/kg/injection, schedule: Q01DX001 (ip), vehicle: saline with Tween-80) was 100 % of control. The T/C (dose: 50.0 mg/kg/injection, schedule: Q04DX002 (ip), vehicle: saline with Tween-80) was 98 % of control, the T/C [13] was 96 % of control and 98 % of control and the T/C [20] was 95 % of control.
